Tests used:
[1] = Antitumor activity against mouse Ptch+/- p53-/- medulloblastoma cells xenografted Harlan nu/nu mouse at 5 mg/kg, po qd administered after 7 days tumor implantation measured after 12 days relative to control; type: functional, Medulloblastoma cell
[2] = Cmax in nude mouse plasma at 5 mg/kg, po after 24 hrs; type: ADME, organism-based; set-up: dose 5 mg/kg, route oral
Mus musculus [3] = experiment: Total body water content in nude mouse at 1 mg/kg, iv; type: ADME, organism-based; set-up: dose 1 mg/kg, route intravenous; conditions: in vivo
[4] = Clearance in nude mouse plasma at 1 mg/kg, iv after 24 hrs; type: ADME, organism-based; set-up: dose 1 mg/kg, route intravenous
Medulloblastoma cell [5] = experiment: Inhibition of Gli mRNA expression in mouse medulloblastoma cells at 5 mg/kg, po by RT-PCR; type: functional, organism-based; set-up: dose 5 mg/kg; conditions: TDE = time-dependent effect
Protein smoothened [6] = biological target: Protein smoothened (Homo sapiens, UniProt Q99835); experiment: Displacement of [3H]3-chloro-4,7-difluoro-N-(4-methoxy-3-(pyridin-4-yl)benzyl)-N-(4-(methylamino)cyclohexyl)benzo[b]thiophene-2-carboxamide from human Smoothened receptor expressed in CHO-K1 cells by membrane filter binding assay; type: cell-based
Mus musculus [7] = experiment: Toxicity in mouse Ptch+/- p53-/- medulloblastoma cells xenografted Harlan nu/nu mouse assessed as change in body weight at 5 to 40 mg/kg, po qd administered after 7 days tumor implantation measured after 12 days; type: organism-based; set-up: dose 5-40 mg/kg, route oral; conditions: in vivo, 288 h
[8] = Antitumor activity against mouse Ptch+/- p53-/- medulloblastoma cells xenografted Harlan nu/nu mouse assessed as tumor regression at 40 mg/kg, po bid administered after 7 days tumor implantation measured after 12 days; type: functional, Medulloblastoma cell
[9] = Half life in nude mouse plasma at 1 mg/kg, iv after 24 hrs; type: ADME, organism-based; set-up: dose 1 mg/kg, route intravenous
Mus musculus [10] = experiment: Toxicity in mouse Ptch+/- p53-/- medulloblastoma cells xenografted Harlan nu/nu mouse assessed as change in body weight at 5 to 40 mg/kg, po bid administered after 7 days tumor implantation measured after 12 days; type: organism-based; set-up: dose 5-40 mg/kg, route oral; conditions: in vivo, 288 h
[11] = Tmax in nude mouse plasma at 5 mg/kg, po after 24 hrs; type: ADME, organism-based; set-up: dose 5 mg/kg, route oral
Mus musculus [12] = experiment: Hepatic blood flow in nude mouse at 1 mg/kg, iv; type: ADME, organism-based, Liver; set-up: dose 1 mg/kg, route intravenous; conditions: in vivo
[13] = AUC (0 to infinity) in nude mouse plasma at 5 mg/kg, po after 24 hrs; type: ADME, organism-based; set-up: time infinity, dose 5 mg/kg, route oral
Medulloblastoma cell [14] = experiment: Inhibition of Gli mRNA expression in mouse medulloblastoma cells at 40 mg/kg, po by RT-PCR; type: functional, organism-based; set-up: dose 40 mg/kg; conditions: TDE = time-dependent effect
[15] = Antitumor activity against mouse Ptch+/- p53-/- medulloblastoma cells xenografted Harlan nu/nu mouse at 5 mg/kg, po bid administered after 7 days tumor implantation measured after 12 days relative to control; type: functional, Medulloblastoma cell
[16] = Ratio of Cmax in brain to Cmax in plasma of nude mouse at 5 mg/kg, po after 24 hrs; type: ADME, organism-based; set-up: dose 5 mg/kg, route oral; conditions: read-out: Ratio_Cmax_brain/plasma
[17] = Oral bioavailability in nude mouse plasma at 5 mg/kg after 24 hrs; type: ADME, organism-based
[18] = Antitumor activity against mouse Ptch+/- p53-/- medulloblastoma cells xenografted Harlan nu/nu mouse at 20 mg/kg, po qd administered after 7 days tumor implantation measured after 12 days relative to control; type: functional, Medulloblastoma cell
[19] = Antitumor activity against mouse Ptch+/- p53-/- medulloblastoma cells xenografted Harlan nu/nu mouse at 40 mg/kg, po qd administered after 7 days tumor implantation measured after 12 days relative to control; type: functional, Medulloblastoma cell
Protein smoothened [20] = biological target: T1, Protein smoothened (Mus musculus, UniProt P56726); experiment: Displacement of [3H]3-chloro-4,7-difluoro-N-(4-methoxy-3-(pyridin-4-yl)benzyl)-N-(4-(methylamino)cyclohexyl)benzo[b]thiophene-2-carboxamide from mouse Smoothened receptor expressed in CHO-K1 cells by membrane filter binding assay; type: cell-based
[21] = Antitumor activity against mouse Ptch+/- p53-/- medulloblastoma cells xenografted Harlan nu/nu mouse at 10 mg/kg, po qd administered after 7 days tumor implantation measured after 12 days relative to control; type: functional, Medulloblastoma cell
Medulloblastoma cell [22] = experiment: Inhibition of Gli mRNA expression in mouse medulloblastoma cells after 1 to 24 hrs by RT-PCR; type: functional
[23] = Ratio of AUC (0 to infinity) in brain to AUC (0 to infinity) in plasma of nude mouse at 5 mg/kg, po after 24 hrs; type: ADME, organism-based; set-up: dose 5 mg/kg, route oral; conditions: read-out: Ratio AUC
[24] = Volume of distribution at steady state in nude mouse plasma at 1 mg/kg, iv after 24 hrs; type: ADME, organism-based; set-up: dose 1 mg/kg, route intravenous; conditions: read-out: Vdss
Medulloblastoma cell [25] = experiment: Antitumor activity against mouse Ptch+/- p53-/- medulloblastoma cells xenografted po dosed Harlan nu/nu mouse assessed as tumor regression administered after 7 days tumor implantation measured after 12 days; type: functional, organism-based
[26] = AUC (0 to infinity) in nude mouse brain at 5 mg/kg, po after 24 hrs; type: ADME, organism-based; set-up: dose 5 mg/kg, route oral, time infinity
[27] = Cmax in nude mouse brain at 5 mg/kg, po after 24 hrs; type: ADME, organism-based; set-up: dose 5 mg/kg, route oral
Mus musculus [28] = experiment: Toxicity in mouse Ptch+/- p53-/- medulloblastoma cells xenografted Harlan nu/nu mouse at 5 to 40 mg/kg, po bid administered after 7 days tumor implantation measured after 12 days; type: organism-based; set-up: dose 5-40 mg/kg, route oral; conditions: in vivo, 288 h
Protein smoothened [29] = biological target: T1, Protein smoothened; experiment: Inhibition of Smoothened receptor in mouse TM3 cells transfected with pTA-8xGli-Luc reporter gene assessed as inhibition of 1 nM 3-chloro-4,7-difluoro-N-(4-methoxy-3-(pyridin-4-yl)benzyl)-N-(4-(methylamino)cyclohexyl)benzo[b]thiophene-2-carboxamide-induced Hedgehog pathway activation by Gli shift assay; type: cell-based
[30] = Antitumor activity against mouse Ptch+/- p53-/- medulloblastoma cells xenografted Harlan nu/nu mouse at 10 mg/kg, po bid administered after 7 days tumor implantation measured after 12 days relative to control; type: functional, Medulloblastoma cell
Mus musculus [31] = experiment: Toxicity in mouse Ptch+/- p53-/- medulloblastoma cells xenografted Harlan nu/nu mouse at 5 to 40 mg/kg, po qd administered after 7 days tumor implantation measured after 12 days; type: organism-based; set-up: dose 5-40 mg/kg, route oral; conditions: in vivo, 288 h
[32] = Antitumor activity against mouse Ptch+/- p53-/- medulloblastoma cells xenografted Harlan nu/nu mouse assessed as tumor regression at 20 mg/kg, po bid administered after 7 days tumor implantation measured after 12 days; type: functional, Medulloblastoma cell
[33] = Tmax in nude mouse brain at 5 mg/kg, po after 24 hrs; type: ADME, organism-based; set-up: dose 5 mg/kg, route oral
Protein smoothened [34] = biological target: T1, Protein smoothened; type: cell-based, TM3
Description: Inhibition of Smoothened receptor in mouse TM3 cells transfected with pTA-8xGli-Luc reporter gene assessed as inhibition of 25 nM 3-chloro-4,7-difluoro-N-(4-methoxy-3-(pyridin-4-yl)benzyl)-N-(4-(methylamino)cyclohexyl)benzo[b]thiophene-2-carboxamide-induced Hedgehog pathway activation by Gli shift assay

[35] = AUC (0 to infinity) in nude mouse plasma at 1 mg/kg, iv after 24 hrs; type: ADME, organism-based; set-up: time infinity, dose 1 mg/kg, route intravenous

T1 sequence (P56726 whole entry): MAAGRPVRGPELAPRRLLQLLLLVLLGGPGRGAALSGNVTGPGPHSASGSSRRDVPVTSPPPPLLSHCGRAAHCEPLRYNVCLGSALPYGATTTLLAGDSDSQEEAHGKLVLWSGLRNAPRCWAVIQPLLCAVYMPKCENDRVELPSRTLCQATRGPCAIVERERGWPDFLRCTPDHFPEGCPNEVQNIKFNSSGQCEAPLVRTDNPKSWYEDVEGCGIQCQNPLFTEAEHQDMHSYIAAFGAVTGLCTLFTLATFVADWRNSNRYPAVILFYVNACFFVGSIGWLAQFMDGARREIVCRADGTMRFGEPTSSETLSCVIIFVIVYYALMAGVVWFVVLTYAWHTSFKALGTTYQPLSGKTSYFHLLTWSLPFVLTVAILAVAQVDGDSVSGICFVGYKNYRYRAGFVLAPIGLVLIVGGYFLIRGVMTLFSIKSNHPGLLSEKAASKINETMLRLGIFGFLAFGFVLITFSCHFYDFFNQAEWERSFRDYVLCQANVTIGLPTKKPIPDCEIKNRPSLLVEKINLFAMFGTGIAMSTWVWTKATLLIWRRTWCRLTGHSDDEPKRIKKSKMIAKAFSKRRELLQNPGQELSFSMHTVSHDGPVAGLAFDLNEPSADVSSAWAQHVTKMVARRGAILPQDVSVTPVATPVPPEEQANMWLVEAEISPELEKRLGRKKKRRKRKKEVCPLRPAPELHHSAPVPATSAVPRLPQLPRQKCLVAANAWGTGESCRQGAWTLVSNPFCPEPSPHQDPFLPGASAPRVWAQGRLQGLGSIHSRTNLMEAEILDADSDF
Sequence of Protein smoothened (Homo sapiens, UniProt Q99835) (Q99835 whole entry): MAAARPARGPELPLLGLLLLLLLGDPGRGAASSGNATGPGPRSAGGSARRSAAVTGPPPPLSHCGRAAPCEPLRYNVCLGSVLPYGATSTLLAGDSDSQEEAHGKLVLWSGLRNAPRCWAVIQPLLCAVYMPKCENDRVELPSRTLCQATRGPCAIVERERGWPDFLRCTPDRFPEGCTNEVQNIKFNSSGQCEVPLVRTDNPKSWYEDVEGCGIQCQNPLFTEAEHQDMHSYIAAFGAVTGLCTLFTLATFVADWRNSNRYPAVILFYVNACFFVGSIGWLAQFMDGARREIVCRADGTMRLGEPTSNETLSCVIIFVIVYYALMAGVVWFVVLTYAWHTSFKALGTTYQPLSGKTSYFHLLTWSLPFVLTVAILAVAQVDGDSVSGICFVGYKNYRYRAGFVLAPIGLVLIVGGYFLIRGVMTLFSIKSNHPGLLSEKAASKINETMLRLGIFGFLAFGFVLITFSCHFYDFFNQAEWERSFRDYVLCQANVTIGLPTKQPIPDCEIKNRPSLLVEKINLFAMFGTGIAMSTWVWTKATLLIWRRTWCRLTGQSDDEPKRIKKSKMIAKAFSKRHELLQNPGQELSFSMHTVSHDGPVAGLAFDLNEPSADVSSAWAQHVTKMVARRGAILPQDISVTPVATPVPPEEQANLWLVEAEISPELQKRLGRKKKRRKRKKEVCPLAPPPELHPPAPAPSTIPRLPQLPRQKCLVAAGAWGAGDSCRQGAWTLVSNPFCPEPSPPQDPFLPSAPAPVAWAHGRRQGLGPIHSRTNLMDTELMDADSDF

Question: Which results are given for `CC(C)(O)c1ccc(N2CCN(c3nnc(Cc4ccccc4)c4ccccc34)CC2)nc1`?
Answer: T/C [1]: 80%; Cmax [2]: 15.7 µM; Activity (Mus musculus [3]): 0.7 L/kg; clearance [4]: 0.314 L/h/kg; Activity (Medulloblastoma cell [5]): tde; IC50 (Protein smoothened [6]): 8 nM; Activity (Mus musculus [7]): Non-toxic; T/C [8]: 71%; half-life [9]: 31.8 min; Activity (Mus musculus [10]): Non-toxic; Tmax [11]: 15 min; QH (Mus musculus [12]): 5.4 L/h/kg; AUC(0-inf) [13]: 26.5 µM·h; Activity (Medulloblastoma cell [14]): tde; T/C [15]: 69%; Kp at 24 h [16]: 0.15; bioavailability [17]: 73%; T/C [18]: 45%; T/C [19]: 19%; IC50 (Protein smoothened [20]): 5 nM; T/C [21]: 77%; Activity (Medulloblastoma cell [22]): Dose-dependent effect; Kp at 24 h [23]: 0.33; Vd [24]: 0.2 L/kg; Activity (Medulloblastoma cell [25]): Dose-dependent effect; AUC(0-inf) [26]: 8.82 µM·h; Cmax [27]: 2.39 µM; Activity (Mus musculus [28]): Non-toxic; IC50 (Protein smoothened [29]): 2.7 nM; T/C [30]: 40%; Activity (Mus musculus [31]): Non-toxic; T/C [32]: 15%; Tmax [33]: 15 min; IC50 (Protein smoothened [34]): 35 nM; AUC(0-inf) [35]: 7.23 µM·h
